Patent US10736898B2, “Positive allosteric modulators of the muscarinic acetylcholine receptor M4” (Vanderbilt University, priority 2017, dated 2020)

Legend:
[1] = test system: 68 primary molecular targets; assay: Eurofins LeadProfilingScreen (binding); conditions: at 10 μM (binding); 68 targets
From the text: The screen includes 68 primary molecular targets, including several CNS targets recommended by the EMEA to evaluate drug dependence potential.

[2] = test system: MDCK-MDR1 cells; assay: Bidirectional permeability/efflux in MDCK-MDR1 cells; type: in vitro ADME, canine; conditions: efflux ratio
Protocol: (§1) Compound 1 was evaluated in several well-known in vitro assays to investigate both metabolism and pharmacokinetics. Bidirectional permeability/efflux was determined in MDCK-MDR1 cells, which originate from transfection of Madin Darby canine kidney (MDCK) cells with the MDR1 gene. These assays were performed according to known methods as generally described in the following references: Conde-Ceide et al. ACS Med. Chem. Lett. 2015, 6, 716-720; Morris et al. J. Med. Chem. 2014, 57, 10192-10197; and Bubser et al. ACS Chem. Neurosci. 2014, 5, 920-942.

[3] = test system: MDR1; assay: as above; type: in vitro ADME, canine; conditions: dog
Protocol: as §1

[4] = Dog Fu (plasma); type: in vitro ADME
Protocol: as §1

[5] = Human Fu (plasma); type: in vitro ADME
Protocol: as §1

[6] = Human CLint; type: in vitro ADME
Protocol: as §1

[7] = target: P450 2D6 (Homo sapiens, UniProt P10635); assay: P450 2D6 inhibition; type: in vitro ADME
P450 2D6, sequence (P10635 whole entry): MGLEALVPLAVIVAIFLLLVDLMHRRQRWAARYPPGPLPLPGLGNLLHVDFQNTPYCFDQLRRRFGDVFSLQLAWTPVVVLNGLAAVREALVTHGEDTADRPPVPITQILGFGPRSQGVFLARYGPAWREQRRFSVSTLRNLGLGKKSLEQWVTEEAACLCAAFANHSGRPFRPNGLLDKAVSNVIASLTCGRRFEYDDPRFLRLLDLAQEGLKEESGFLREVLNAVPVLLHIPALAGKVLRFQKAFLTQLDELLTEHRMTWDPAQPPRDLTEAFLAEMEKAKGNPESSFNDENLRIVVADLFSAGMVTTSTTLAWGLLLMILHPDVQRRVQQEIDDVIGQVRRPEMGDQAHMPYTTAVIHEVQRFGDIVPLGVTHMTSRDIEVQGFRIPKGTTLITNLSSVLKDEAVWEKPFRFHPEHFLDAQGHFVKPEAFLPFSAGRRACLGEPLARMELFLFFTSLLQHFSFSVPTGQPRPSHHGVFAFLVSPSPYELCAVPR
Protocol: as §1

[8] = target: P450 2C9 (Homo sapiens, UniProt P11712); assay: P450 2C9 inhibition; type: in vitro ADME
P450 2C9, sequence (P11712 whole entry): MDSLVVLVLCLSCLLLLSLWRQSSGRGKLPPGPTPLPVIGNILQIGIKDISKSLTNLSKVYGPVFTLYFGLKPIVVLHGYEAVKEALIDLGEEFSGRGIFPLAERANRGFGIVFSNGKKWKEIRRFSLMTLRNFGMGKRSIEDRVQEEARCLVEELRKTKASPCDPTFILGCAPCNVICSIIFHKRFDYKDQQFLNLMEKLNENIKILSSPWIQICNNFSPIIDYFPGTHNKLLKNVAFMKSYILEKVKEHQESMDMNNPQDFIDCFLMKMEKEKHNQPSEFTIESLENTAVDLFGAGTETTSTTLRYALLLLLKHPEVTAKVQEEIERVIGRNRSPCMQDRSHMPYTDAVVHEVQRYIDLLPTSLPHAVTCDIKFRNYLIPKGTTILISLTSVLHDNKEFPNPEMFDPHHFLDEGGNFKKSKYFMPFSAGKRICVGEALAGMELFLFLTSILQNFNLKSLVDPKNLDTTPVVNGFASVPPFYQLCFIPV
Protocol: as §1

[9] = In vivo pharmacokinetics in rats (IV and PO)
Protocol: (§2) Compound 1 was evaluated in several in vivo studies to investigate its metabolism and pharmacokinetics.
Male Sprague-Dawley rats (n=2) weighing around 300 g were purchased from Harlon Laboratories (Indianapolis, Ind.) and implanted with catheters in the carotid artery and jugular vein. For intravenous (IV) administration, male Sprague-Dawley rats (n=2) were each administered a single 0.2 mg/kg dose of the test article via a jugular cannula and then blood samples were collected via a carotid artery catheter at 0.033, 0.117, 0.25, 0.5, 1, 2, 4, 7, 12, and 24 hours post-dosing from each animal. For oral (PO) administration, fasted male Sprague-Dawley rats (n=2) were each administered a single 3 mg/kg dose of the test article via oral gavage and then blood samples were collected via a carotid artery catheter at 0.25, 0.5, 1, 2, 4, 7, 12, and 24 hours post-dosing from each animal. Upon sampling, blood was collected into chilled, EDTA-fortified tubes and immediately placed on wet ice. Samples were then centrifuged for 10 minutes at 3500 rcf (at 4° C.) to obtain plasma. The plasma samples were stored at −80° C. until analysis. During the analysis, the samples were thawed on bench at room temperature and 20 μL was transferred to 96-well plate. 120 μL of 50 nM carbamazepine in acetonitrile was added to the plasma sample to precipitate the protein and provide the internal standard. After vortex and centrifugation, 75 μL of supernatant was transferred to another 96-well plate that contained 75 μL of water. 10 μL of the diluted supernatant was injected onto an AB Sciex 4000 or 5500 LC-MS/MS system for quantitation. The detection range for analyte was 0.5 to 5000 ng/mL utilizing a quadratic curve with 1/x^2 weighting. Sciex Analyst 1.4.2 software was used for data acquisition and quantitation. Pharmacokinetic parameters were determined from individual animal data using non-compartmental analysis (Model 201) in WinNonlin (v5.3, Pharsight Corp., Mountain View, Calif.).

[10] = In vivo pharmacokinetics in dogs (IV and PO)
Protocol: as §2
Dogs (male, Beagle, weighing approximately 8-15 kg, n=2) were dosed intravenously (0.5 mg/kg) via cephalic vein and orally (3 mg/kg) by gavage. Blood samples were collected from the jugular vein via needlestick. Blood samples were obtained at 0.083, 0.25, 0.5, 1, 2, 4, 6, 10, and 24 hours (IV) and 0.25, 0.5, 1, 2, 4, 6, 10, and 24 hours (PO) and plasma harvested for analysis. Sample preparation and bioanalysis was conducted as described above.

inhibition of each target in the LeadProfilingScreen [1]: < 50%
MDCK-MDR1 ER [2]: 1.5 (Papp A→B:
Papp A→B [3]: 46.7 ×10⁻⁶ cm/s
fraction unbound [4]: 0.072
fraction unbound [5]: 0.014
CLint scaled [6]: 26 mL/min/kg
IC50 [7]: > 30 µM
IC50 [8]: 17 µM
Rat oral F ([9]; 3 mg/kg PO): >100%
clearance ([9]; male, Sprague-Dawley, plasma, rat, IV 0.2 mg/kg, read-out: Rat CLp): 7.1 mL/min/kg
Vd ([9]; male, Sprague-Dawley, plasma, rat, IV 0.2 mg/kg, read-out: Rat Vss): 1.1 L/kg
half-life ([9]; male, Sprague-Dawley, rat, plasma, read-out: Rat Elim. t1/2 (converted)): 114 min
Dog oral F ([10]; 3 mg/kg PO): 28%
half-life ([10]; male, Beagle, dog, plasma, read-out: Dog Elim. t1/2 (converted)): 144 min
clearance ([10]; male, Beagle, plasma, dog, IV 0.5 mg/kg, read-out: Dog CLp): 24 mL/min/kg
Vd ([10]; male, Beagle, plasma, dog, IV 0.5 mg/kg, read-out: Dog Vss): 2.3 L/kg
SMILES: Cc1nc(C)c2c(n1)sc1c(NCc3ccc(C(C)(C)O)cc3)ncnc12 [Compound 1, 2-(4-(((7,9-Dimethylthieno[2,3-d:4,5-d′]dipyrimidin-4-yl)amino)methyl)phenyl)propan-2-ol]
